Consider four compounds from paper PMC10873021 (Biochemistry, 2023).

Molecules are shown by their SMILES.

For experiment [1], the system named is PglJ Cc 33237. The following applies: 20 μM Und-PP-diNAcBac-GalNAc; 0.1 nM enzyme; 5 mM MgCl2; 0.1% Triton X-100; 50 mM HEPES pH 7.5; 100 mM NaCl.
Experiment [2] concerns PglJ Cc 13826. The note with it: 20 μM Und-PP-diNAcBac-GalNAc; 0.1 nM enzyme; 5 mM MgCl2; 0.1% Triton X-100; 50 mM HEPES pH 7.5; 100 mM NaCl.
The target in experiment [3] is PglJ Cj 11168 (Campylobacter jejuni, UniProt Q0P9C7). The experiment is described as follows: UDP-Glo glycosyltransferase assay, UDP-sugar screen. The format is biochemical. The note with it: 10 nM enzyme; 25 μM UDP-sugar; 20 μM Und-PP-diNAcBac-GalNAc; 5 mM MgCl2; pH 7.5.
Experiment [4] concerns PglJ Cc 33237. The following applies: 25 μM UDP-sugar; 20 μM Und-PP-diNAcBac-GalNAc; 5 mM MgCl2; pH 7.5; varying enzyme.
The test system of experiment [5] is PglJ Cc 13826. The note with it: 1 mM ligand; 10 mM HEPES pH 7.5; 150 mM NaCl; 5% glycerol; 2 mM DTT; 0.03% DDM.
For experiment [6], the system named is PglJ Cc 33237. The note with it: 1 mM ligand; 10 mM HEPES pH 7.5; 150 mM NaCl; 5% glycerol; 2 mM DTT; 0.03% DDM.

As a reminder, the Km is the concentration of substrate that gives half-maximal velocity.

With `CC(=O)N[C@H]1[C@@H](OP(=O)(O)OP(=O)(O)OC[C@H]2O[C@@H](n3ccc(=O)[nH]c3=O)[C@H](O)[C@@H]2O)O[C@H](C(=O)O)[C@H](O)[C@@H]1O` [UDP-GalNAcA], the Km in experiment [1] was determined as 7.4 ± 2.5 µM; in experiment [2], 3.8 ± 1.9 µM.
Take `CC(=O)N[C@H]1[C@@H](OP(=O)(O)OP(=O)(O)OC[C@H]2O[C@@H](n3ccc(=O)[nH]c3=O)[C@H](O)[C@@H]2O)O[C@H](CO)[C@H](O)[C@@H]1O` [UDP-GalNAc]: the “UDP-Glo glycosyltransferase assay, UDP-sugar screen” value in experiment [3] is listed as “At the same concentration, the PglJ from C. jejuni preferred UDP-GalNAc”; in experiment [4], “this variant now transfers GalNAc from UDP-GalNAc onto the growing Und-PP-glycan”.
In the case of `CC(=O)N[C@H]1[C@@H](OP(=O)(O)OP(=O)(O)OC[C@H]2O[C@@H](n3ccc(=O)[nH]c3=O)[C@H](O)[C@@H]2O)O[C@H](C(=O)O)[C@@H](O)[C@@H]1O` [UDP-GlcNAcA], the dTm entry in experiment [5] was “(UDP-GalNAcA and UDP-GlcNAcA) stabilized the PglJ enzymes from both strains of C. concisus studied”; in experiment [6], “(UDP-GalNAcA and UDP-GlcNAcA) stabilized the PglJ enzymes from both strains of C. concisus studied”.
In the case of `O=c1ccn([C@@H]2O[C@H](COP(=O)(O)OP(=O)(O)O)[C@@H](O)[C@H]2O)c(=O)[nH]1` [UDP], the dTm result is recorded as “Significant stabilization was observed with UDP, the nucleotide product of the glycosyltransferase reaction” in experiment [5] and “Significant stabilization was observed with UDP, the nucleotide product of the glycosyltransferase reaction” in experiment [6].
